{
  "source": "patent US11673916B2",
  "about": "“Neuroprotective peptides and methods of their use” (University of Pittsburgh—Of the Commonwealth System of …, priority 2020, dated 2023)",
  "test_system": "MCAo mouse model of ischemic stroke",
  "experiment": "Transient middle cerebral artery occlusion (MCAo), infarct ratio by TTC staining",
  "format": "in vivo",
  "conditions": "50 minutes MCAo, IP peptide at one and six hours after reperfusion, 24 h after reperfusion, mean±SEM (FIG. 6D)",
  "experimental": "Mice were anesthetized with isoflurane and the common carotid artery was exposed. A single-use silicon-coated suture (MCAo suture #602256PK10; Doccol Corporation, Sharron, Mass.) was advanced 8-9 mm into the internal carotid artery, occluding the MCA. The suture was secured with 6-0 silk ligatures for 50 minutes, then removed. Twenty-four hours following cerebral reperfusion, mice were sacrificed and four 2-mm coronal brain sections were obtained from each animal. Sections were stained with 0.05% 2,3,5-triphenyltetrazolium chloride (TTC) in PBS for 30 minutes at room temperature. Brain sections were digitally scanned following staining and a blinded experimenter measured infarct ratios (infarct area/total section area) using NIH ImageJ software. Visual representation of this protocol is in FIG. 6B.\nThe neuroprotective efficacy of TAT-DP-2 in vivo was next tested. […]\nTwenty-four hours following cerebral reperfusion after MCAo, total infarct ratios were analyzed (FIG. 6B) in tetrazolium chloride-stained brain sections (FIGS. 6B and 6C). […] A different, blinded observer then analyzed each animal and assigned an objective murine neurological score (MNS; Table 3) to each mouse over a 42-day period. As the MNS is based solely on characteristic motor deficits developed following left MCAo, all animals initially scored zero on the scale.",
  "data": [
    {"sequence": "YGRKKRRQRRRDFSSIST [TAT-Sc-2, TAT-linked scramble control peptide]", "values": [
      {"measurement": "mean total infarct ratio", "value": "0.121±0.009"}
    ]},
    {"sequence": "YGRKKRRQRRRSIDSFTS [TAT-DP-2, TAT-linked declustering peptide 2]", "values": [
      {"measurement": "mean total infarct ratio", "value": "0.071±0.020"}
    ]}
  ]
}
